Structures can show the parent of a compound that is named as a salt.
Tests used:
Format in all cases: biochemical
AKT1 = biological target: T1, AKT1 (Homo sapiens, UniProt P31749); assay: AKT Kinase Assay (IMAP fluorescent polarisation) vs AKT1; conditions: activated AKT1, FAM Crosstide substrate
T1 construct: purchased SignalChem
Procedure: (§1) Testing of the compounds was performed using an AKT Kinase Assay:
(§2) Activated AKT isoforms 1, 2 and 3 were assayed utilising a 5′ FAM Crosstide (Seq. GRPRTSSFAEG-OH). The extent of kinase phosphorylation was determined by fluorescent polarisation using IMAP progressive binding reagent, which introduces binding beads which allow the reagent to specifically bind to phosphate residues via covalent co-ordination complex bonds.
(§3) iMAP binding solution stops Crosstide/kinase interaction and specifically binds phosphorylated substrates. The degree of phosphorylation is determined by fluorescent polarisation (excitation 485 nm; emission 528 nm) or the reduction in speed of rotation of the excited substrate.
(§4) The following materials were used in the assay: • a) Activated AKT isoforms (SignalChem.) dissolved in Complete Reaction buffer at a pre-determined concentration selected so that the assay was carried out in the linear range. • b) AKT substrate peptide: FAM Crosstide (R7110) Molecular Devices, diluted in complete reaction buffer. • c) iMAP Progressive Screening Express Kit (R8127) Molecular Devices • d) Complete Reaction Buffer containing 0.1% BSA, 10 mM Tris-HCl, 10 mM MgCl2, 0.05% NaN3 and 0.01% phosphate free BSA, 1 mM DTT • e) Progressive Binding Solution containing 75% Buffer A, 25% Buffer B and low volume Binding Reagent which contains the binding entity for the assay • f) ATP diluted in complete reaction buffer • g) Black polystyrene 384 well assay plates (Nunc). • h) Biotek Synergy 4 Hybrid Plate reader.
(§5) 5 μl of test compound was dissolved in DMSO (Sigma Aldrich) and serially diluted in complete reaction buffer to give a fourteen point half log dose response and plated into 384 well black plates. The compound was incubated at room temperature with activated AKT isoform (5 μl) at the pre-determined concentration, for 45 minutes.
(§6) 2.5 μl of ATP solution mixed with 2.5 μl of AKT substrate peptide (FAM Crosstide (R7110) Molecular Devices) were dispensed into each well and the plate centrifuged at 1000 rpm for 20 seconds to ensure homogenous mixing of reagents. The reaction mix was incubated in the dark for one hour at room temperature.
(§7) The kinase reaction was stopped by the addition of Progressive Binding Solution and the mixture allowed to equilibrate for one hour in the dark, at room temperature.
(§8) The fluorescent polarisation generated in each well was determined using a […] Synergy 4 Hybrid plate reader. In brief, each reaction solution was excited at 485 nm with the emission measured at 528 nm in both the parallel and perpendicular pathway.
(§9) The polarisation value generated in each well was calculated by Gen5 software (Biotek) and the % inhibition of kinase activity compared to vehicle control was calculated via GraphPad Prism. IC50 values for each compound were calculated by non-linear regression analysis using Prism software.
(§10) All plates were internally controlled by two methods. Firstly, by calculating the signal:noise ratio; based on kinase polarisation without inhibitor and polarisation generated by complete reaction buffer in the absence of activated kinase. Secondly by determining IC50 values generated by known inhibitors of the AKT isoforms.

AKT3 = biological target: T2, AKT3 (Homo sapiens, UniProt Q9Y243); assay: AKT Kinase Assay (IMAP fluorescent polarisation) vs AKT3; conditions: activated AKT3, FAM Crosstide substrate
T2 construct: purchased SignalChem
T2 sequence (Q9Y243 whole entry): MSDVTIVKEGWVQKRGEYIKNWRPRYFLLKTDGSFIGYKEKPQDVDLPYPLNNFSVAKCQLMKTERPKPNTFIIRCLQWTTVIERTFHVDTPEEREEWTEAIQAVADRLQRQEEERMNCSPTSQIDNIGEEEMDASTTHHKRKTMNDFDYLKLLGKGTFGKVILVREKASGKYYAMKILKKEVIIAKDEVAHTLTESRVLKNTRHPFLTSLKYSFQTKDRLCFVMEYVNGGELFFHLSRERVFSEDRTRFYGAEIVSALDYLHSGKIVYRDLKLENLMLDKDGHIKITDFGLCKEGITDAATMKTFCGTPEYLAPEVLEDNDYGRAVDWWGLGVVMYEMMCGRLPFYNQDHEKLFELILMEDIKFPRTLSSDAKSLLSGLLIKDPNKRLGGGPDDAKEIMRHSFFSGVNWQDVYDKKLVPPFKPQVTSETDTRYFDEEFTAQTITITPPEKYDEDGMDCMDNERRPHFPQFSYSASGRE
Procedure: as §1, §2, §3, §4, §5, §6, §7, §8, §9, §10

AKT2 = biological target: T3, AKT2 (Homo sapiens, UniProt P31751); assay: AKT Kinase Assay (IMAP fluorescent polarisation) vs AKT2; conditions: activated AKT2, FAM Crosstide substrate
T3 construct: purchased SignalChem
T3 sequence (P31751 whole entry): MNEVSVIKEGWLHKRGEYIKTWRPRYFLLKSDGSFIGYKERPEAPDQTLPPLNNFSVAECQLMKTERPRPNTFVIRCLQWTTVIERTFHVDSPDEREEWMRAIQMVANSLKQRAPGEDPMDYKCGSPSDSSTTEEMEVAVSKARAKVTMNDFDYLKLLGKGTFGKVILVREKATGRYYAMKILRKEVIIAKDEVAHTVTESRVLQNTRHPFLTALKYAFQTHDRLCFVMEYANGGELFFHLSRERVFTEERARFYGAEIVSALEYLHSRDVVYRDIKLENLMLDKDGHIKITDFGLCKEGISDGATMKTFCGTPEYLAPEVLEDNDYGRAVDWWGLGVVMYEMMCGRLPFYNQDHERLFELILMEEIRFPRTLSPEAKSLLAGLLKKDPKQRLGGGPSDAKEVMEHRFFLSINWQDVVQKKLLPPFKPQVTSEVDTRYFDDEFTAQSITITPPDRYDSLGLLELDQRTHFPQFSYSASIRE
Procedure: as §1, §2, §3, §4, §5, §6, §7, §8, §9, §10

T1 sequence (P31749 whole entry): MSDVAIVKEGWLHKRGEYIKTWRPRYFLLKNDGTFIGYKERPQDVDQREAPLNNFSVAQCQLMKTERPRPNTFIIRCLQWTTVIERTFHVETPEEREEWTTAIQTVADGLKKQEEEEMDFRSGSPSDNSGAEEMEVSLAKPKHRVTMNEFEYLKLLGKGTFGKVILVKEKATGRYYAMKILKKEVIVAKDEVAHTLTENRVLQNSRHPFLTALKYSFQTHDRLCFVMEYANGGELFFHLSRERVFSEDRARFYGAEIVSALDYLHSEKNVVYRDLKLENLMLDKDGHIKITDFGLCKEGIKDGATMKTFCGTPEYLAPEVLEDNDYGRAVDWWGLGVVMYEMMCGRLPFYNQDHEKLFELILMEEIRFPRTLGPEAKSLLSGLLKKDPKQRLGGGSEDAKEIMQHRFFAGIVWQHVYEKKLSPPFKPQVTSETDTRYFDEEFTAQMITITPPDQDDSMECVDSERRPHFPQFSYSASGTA

Row | IC50 (AKT1) | IC50 (AKT3) | IC50 (AKT2) | SMILES
1 | 1000 to 10000 nM | > 10 µM | ≤ 1000 nM | COc1cc2c(=O)c(-c3ccc(C4(N)CCC4)cc3)c(-c3ccccc3)oc2cc1C(N)=O [Example 29, 3-[4-(1-Amino-cyclobutyl)-phenyl]-6-methoxy-4-oxo-2-phenyl-4H-chromene-7-carboxylic acid amide]
2 | ≤ 1000 nM | 1 to 10 µM | ≤ 1000 nM | Cc1c(-c2cccc3c(=O)c(-c4ccc(C5(N)CCC5)cc4)c(-c4ccccc4)oc23)cnn1C [Example 75, 3-[4-(1-Amino-cyclobutyl)-phenyl]-8-(1,5-dimethyl-1H-pyrazol-4-yl)-2-phenyl-chromen-4-one hydrochloride]
3 | ≤ 1000 nM | > 10 µM | 1000 to 10000 nM | Nc1ccc2c(=O)c(-c3ccc(C4(N)CCC4)cc3)c(-c3ccccc3)oc2c1O [Example 93, 7-Amino-3-[4-(1-amino-cyclobutyl)-phenyl]-8-hydroxy-2-phenyl-chromen-4-one]
4 | ≤ 1000 nM | 1 to 10 µM | ≤ 1000 nM | NC1(c2ccc(-c3c(-c4ccccc4)oc4c(ccc5nc(C(F)F)[nH]c54)c3=O)cc2)CCC1 [Example 95, 7-[4-(1-Amino-cyclobutyl)-phenyl]-2-difluoromethyl-8-phenyl-1H-chromeno[7,8-d]imidazol-6-one]
5 | ≤ 1000 nM | > 10 µM | ≤ 1000 nM | NC1(c2ccc(-c3c(-c4ccccc4)oc4c(ccc5nn[nH]c54)c3=O)cc2)CCC1 [Example 88, 7-[4-(1-Amino-cyclobutyl)-phenyl]-8-phenyl-1H-9-oxa-1,2,3-triaza-cyclopenta[a]naphthalen-6-one]
6 | 1000 to 10000 nM | > 10 µM | ≤ 1000 nM | NC1(c2ccc(-c3c(-c4ccccc4)oc4c(CN5CC(F)C5)cccc4c3=O)cc2)CCC1 [Example 108, 3-[4-(1-Amino-cyclobutyl)-phenyl]-8-(3-fluoro-azetidin-1-ylmethyl)-2-phenyl-chromen-4-one]
7 | ≤ 1000 nM | > 10 µM | 1000 to 10000 nM | N#Cc1nccc2c(=O)c(-c3ccc(C4(N)CCC4)cc3)c(-c3ccccc3)oc12 [Example 127, 3-(4-(1-aminocyclobutyl)phenyl)-4-oxo-2-phenyl-4H-pyrano[2,3-c]pyridine-8-carbonitrile]
8 | ≤ 1000 nM | > 10 µM | 1000 to 10000 nM | NC1(c2ccc(-c3c(-c4ccccc4)oc4c(F)cccc4c3=O)cc2)CCC1 [Example 2, 3-[4-(1-Amino-cyclobutyl)-phenyl]-8-fluoro-2-phenyl-chromen-4-one]
9 | > 10000 nM | > 10 µM | 1000 to 10000 nM | COc1cc2c(=O)c(-c3ccc(C4(N)CCC4)cc3)c(-c3ccccc3)oc2cc1-c1ccn[nH]1 [Example 28, 3-[4-(1-Amino-cyclobutyl)-phenyl]-6-methoxy-2-phenyl-7-(2H-pyrazol-3yl)-chromen-4-one]
10 | ≤ 1000 nM | ≤ 1 µM | ≤ 1000 nM | Cc1nc2ccc3c(=O)c(-c4ccc(C5(N)CCC5)cc4)c(-c4ccccc4)oc3c2n1C [Example 90, 7-[4-(1-Amino-cyclobutyl)-phenyl]-1,2-dimethyl-8-phenyl-1H-chromeno[7,8-d]imidazol-6-one]
11 | ≤ 1000 nM | 1 to 10 µM | 1000 to 10000 nM | C#Cc1cccc2c(=O)c(-c3ccc(C4(N)CCC4)cc3)c(-c3ccccc3)oc12 [Example 105, 3-[4-(1-Amino-cyclobutyl)-phenyl]-8-ethynyl-2-phenyl-chromen-4-one]
12 | ≤ 1000 nM | > 10 µM | 1000 to 10000 nM | CCc1nccc2c(=O)c(-c3ccc(C4(N)CCC4)cc3)c(-c3ccccc3)oc12 [Example 128, 3-(4-(1-aminocyclobutyl)phenyl)-8-ethyl-2-phenyl-4H-pyrano[2,3-c]pyridin-4-one]
13 | ≤ 1000 nM | > 10 µM | 1000 to 10000 nM | NC1(c2ccc(-c3c(-c4ccccc4)oc4c(Oc5ccccn5)nccc4c3=O)cc2)CCC1 [Example 103, 3-[1-(1-Amino-cyclobutyl)-phenyl]-2-phenyl-8-(pyridin-2-yloxy)-pyrano[2,3-c]pyridin-4-one hydrochloride]
14 | ≤ 1000 nM | 1 to 10 µM | ≤ 1000 nM | NC1(c2ccc(-c3c(-c4ccccc4)oc4c(ccc5cn(CCO)nc54)c3=O)cc2)CCC1 [Example 86, 7-[4-(1-Amino-cyclobutyl)-phenyl]-2-(2-hydroxy-ethyl)-8-phenyl-2H-9-oxa-1,2-diaza-cyclopenta[a]naphthalen-6-one hydrochloride]
15 | 1000 to 10000 nM | > 10 µM | 1000 to 10000 nM | N#Cc1ccc2oc(-c3ccccc3)c(-c3ccc(C4(N)CCC4)cc3)c(=O)c2c1 [Example 21, 3-[4-(1-Amino-cyclobutyl)-phenyl]-4-oxo-2-phenyl-4H-chromene-6-carbonitrile]
16 | 1000 to 10000 nM | > 10 µM | 1000 to 10000 nM | NC1(c2ccc(-c3c(-c4ccccc4)oc4nc(Cl)ccc4c3=O)cc2)CCC1 [Example 38, 3-[4-(1-Amino-cyclobutyl)-phenyl]-7-chloro-2-phenyl-pyrano[2,3-b]pyridin-4]
17 | ≤ 1000 nM | > 10 µM | 1000 to 10000 nM | NC1(c2ccc(-c3c(-c4ccccc4)oc4c(ccn5c(=O)[nH]nc45)c3=O)cn2)CCC1 [Example 69, 7-[6-(1-Amino-cyclobutyl)-pyridin-3-yl]-8-phenyl-2H-9-oxa-1,2,3a-triaza-cyclopenta[a]naphthalene-3,6-dione]
18 | ≤ 1000 nM | 1 to 10 µM | 1000 to 10000 nM | NC1(c2ccc(-c3c(-c4ccccc4)oc4c(-c5ccccc5)nccc4c3=O)cc2)CCC1 [Example 124, 3-(4-(1-aminocyclobutyl)phenyl)-2,8-diphenyl-4H-pyrano[2,3-c]pyridin-4-one]
19 | ≤ 1000 nM | > 10 µM | 1000 to 10000 nM | NC1(c2ccc(-c3c(-c4ccccc4)oc4c(-n5cnnc5)nccc4c3=O)cc2)CCC1 [Example 102, 3-[4-(1-Amino-cyclobutyl)-phenyl]-2-phenyl-8-[1,2,4]triazol-4-yl-pyrano[2,3-c]pyridin-4-one hydrochloride]
20 | 1000 to 10000 nM | > 10 µM | 1000 to 10000 nM | COc1cc2oc(-c3ccccc3)c(-c3ccc(C4(N)CCC4)cc3)c(=O)c2cc1C#N [Example 11, 3-[4-(1-Amino-cyclobutyl)-phenyl]-7-methoxy-4-oxo-2-phenyl-4H-chromene-6-carbonitrile]
21 | ≤ 1000 nM | 1 to 10 µM | ≤ 1000 nM | Cn1ncc2ccc3c(=O)c(-c4ccc(C5(N)CCC5)cc4)c(-c4ccccc4)oc3c21 [Example 58, 7-[4-(1-Amino-cyclobutyl)-phenyl]-1-methyl-8-phenyl-1H-9-oxa-1,2-diaza-cyclopenta[a]naphthalen-6-one]
22 | 1000 to 10000 nM | 1 to 10 µM | ≤ 1000 nM | NC1(c2ccc(-c3c(-c4ccccc4)oc4c(ccc5nc[nH]c54)c3=O)cc2)CCC1 [Example 45, 7-[4-(1-Amino-cyclobutyl)-phenyl]-8-phenyl-1H-chromeno[7,8-d]imidazol-6-one.TFA]
23 | 1000 to 10000 nM | > 10 µM | 1000 to 10000 nM | Cc1nccc2c(=O)c(-c3ccc(C4(N)CCC4)cc3)c(-c3ccccc3)oc12 [Example 120, 3-(4-(1-aminocyclobutyl)phenyl)-8-methyl-2-phenyl-4H-pyrano[2,3c]pyridin-4-one]
24 | 1000 to 10000 nM | > 10 µM | > 10000 nM | NC1(c2ccc(-c3c(-c4ccccc4)oc4c(-c5cccc(F)c5C(=O)O)nccc4c3=O)cc2)CCC1 [Example 121, 2-(3-(4-(1-aminocyclobutyl)phenyl)-4-oxo-2-phenyl-4H-pyrano[2,3-c]pyridin-8-yl)-6-fluorobenzoic acid]
25 | > 10000 nM | > 10 µM | 1000 to 10000 nM | NC(=O)c1ccc2c(=O)c(-c3ccc(C4(N)CCC4)cc3)c(-c3ccccc3)oc2c1 [Example 18, 3-[4-(1-Amino-cyclobutyl)-phenyl]-4-oxo-2-phenyl-4H-chromene-7-carboxylic acid amide]
